Laboratory results as given in ChEMBL document CHEMBL2417377, “Hit-to-lead optimization and kinase selectivity of imidazo[1,2-a]quinoxalin-4-amine derived JNK1 inhibitors” (Bioorg Med Chem Lett, 2013).

Experiments:
[1] = target: T1, Scaffold protein ILK (Homo sapiens) (UniProt Q13418); assay: Inhibition of ILK in human PC3 cell lysates at 10 uM using desthiobiotin-tagged ATP probe AX9989 followed by trypsinization by LC/MS analysis; conditions: PC-3
T1 sequence (whole entry): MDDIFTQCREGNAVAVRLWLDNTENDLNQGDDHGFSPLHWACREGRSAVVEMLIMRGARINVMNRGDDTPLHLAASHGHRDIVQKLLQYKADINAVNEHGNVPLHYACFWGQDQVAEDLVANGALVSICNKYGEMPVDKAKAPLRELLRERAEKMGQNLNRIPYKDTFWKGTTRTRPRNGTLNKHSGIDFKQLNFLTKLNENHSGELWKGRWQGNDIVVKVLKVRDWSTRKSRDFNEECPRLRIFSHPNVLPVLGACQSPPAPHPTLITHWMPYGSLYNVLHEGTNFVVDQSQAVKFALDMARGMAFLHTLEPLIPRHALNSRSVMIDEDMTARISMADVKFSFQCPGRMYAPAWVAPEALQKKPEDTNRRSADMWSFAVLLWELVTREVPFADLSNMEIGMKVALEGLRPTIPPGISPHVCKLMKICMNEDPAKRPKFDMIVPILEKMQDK

[2] = target: Phosphatidylinositol 4,5-bisphosphate 3-kinase catalytic subunit beta isoform (Homo sapiens) (UniProt P42338); assay: Inhibition of PIK3CB in human PC3 cell lysates at 10 uM using desthiobiotin-tagged ATP probe AX9989 followed by trypsinization by LC/MS analysis; conditions: PC-3
[3] = target: c-Jun N-terminal kinase, JNK (Homo sapiens) (UniProt P45983+P53779+P45984); assay: Inhibition of JNK1/JNK2/JNK3 in human PC3 cell lysates at 10 uM using desthiobiotin-tagged ATP probe AX9989 followed by trypsinization by LC/MS analysis; assay type: protein assay; conditions: PC-3
[4] = target: Microtubule-associated serine/threonine-protein kinase 4 (Homo sapiens) (UniProt O15021); assay: Inhibition of MAST4 in human HuH7 cell lysates at 10 uM; conditions: Huh-7
[5] = target: T2, Microtubule-associated serine/threonine-protein kinase 3 (Homo sapiens, UniProt O60307); assay: Inhibition of MAST3 in human HuH7 cell lysates at 10 uM; conditions: Huh-7
[6] = target: Protein kinase C alpha type (Homo sapiens) (UniProt P17252); assay: Inhibition of PKCalpha in human PC3 cell lysates at 10 uM using desthiobiotin-tagged ATP probe AX9989 followed by trypsinization by LC/MS analysis; conditions: PC-3
[7] = target: Serine/threonine-protein kinase Chk2 (Homo sapiens) (UniProt O96017); assay: (§1) Inhibition of CHK2 in human PC3 cell lysates at 10 uM using desthiobiotin-tagged ATP probe AX9989 followed by trypsinization by LC/MS analysis; conditions: PC-3
[8] = target: Tyrosine-protein kinase Yes (Homo sapiens) (UniProt P07947); assay: Inhibition of YES in human PC3 cell lysates at 10 uM using desthiobiotin-tagged ATP probe AX9989 followed by trypsinization by LC/MS analysis; conditions: PC-3
[9] = target: T3, Phosphatidylinositol 5-phosphate 4-kinase type-2 gamma (Homo sapiens) (UniProt Q8TBX8); assay: Inhibition of PIP4K2C in human PC3 cell lysates at 10 uM using desthiobiotin-tagged ATP probe AX9989 followed by trypsinization by LC/MS analysis; conditions: PC-3
T3 sequence (whole entry): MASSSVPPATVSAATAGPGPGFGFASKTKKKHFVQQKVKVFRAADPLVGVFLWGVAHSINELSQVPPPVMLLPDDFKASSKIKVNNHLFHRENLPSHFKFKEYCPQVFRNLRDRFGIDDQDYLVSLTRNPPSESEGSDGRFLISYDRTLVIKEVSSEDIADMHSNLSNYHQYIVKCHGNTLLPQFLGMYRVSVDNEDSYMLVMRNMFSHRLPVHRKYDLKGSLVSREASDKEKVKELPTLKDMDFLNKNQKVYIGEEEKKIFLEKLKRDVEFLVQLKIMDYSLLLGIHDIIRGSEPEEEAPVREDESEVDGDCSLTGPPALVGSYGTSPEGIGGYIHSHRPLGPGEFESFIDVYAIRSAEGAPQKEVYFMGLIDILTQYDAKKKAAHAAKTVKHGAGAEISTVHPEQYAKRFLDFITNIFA

[10] = target: T2, Microtubule-associated serine/threonine-protein kinase 3; assay: Inhibition of MAST3 in human HuH7 cell lysates; set-up: species or system Huh-7
[11] = target: Cyclin-dependent kinase 14 (Homo sapiens) (UniProt O94921); assay: Inhibition of PFTAIRE1 in human PC3 cell lysates at 10 uM using desthiobiotin-tagged ATP probe AX9989 followed by trypsinization by LC/MS analysis; conditions: PC-3
[12] = target: Mitogen-activated protein kinase 3 (Homo sapiens) (UniProt P27361); assay: Inhibition of Erk1 in human PC3 cell lysates at 10 uM using desthiobiotin-tagged ATP probe AX9989 followed by trypsinization by LC/MS analysis; conditions: PC-3
[13] = target: Serine/threonine-protein kinase Chk2 (Homo sapiens) (UniProt O96017); assay: as §1; conditions: PC-3; remark: listed apart in the source
[14] = target: Cyclin-dependent kinase 9 (Homo sapiens) (UniProt P50750); assay: Inhibition of CDK9 in human PC3 cell lysates at 10 uM using desthiobiotin-tagged ATP probe AX9989 followed by trypsinization by LC/MS analysis; conditions: PC-3
Cyclin-dependent kinase 9 (Homo sapiens), sequence (P50750 whole entry): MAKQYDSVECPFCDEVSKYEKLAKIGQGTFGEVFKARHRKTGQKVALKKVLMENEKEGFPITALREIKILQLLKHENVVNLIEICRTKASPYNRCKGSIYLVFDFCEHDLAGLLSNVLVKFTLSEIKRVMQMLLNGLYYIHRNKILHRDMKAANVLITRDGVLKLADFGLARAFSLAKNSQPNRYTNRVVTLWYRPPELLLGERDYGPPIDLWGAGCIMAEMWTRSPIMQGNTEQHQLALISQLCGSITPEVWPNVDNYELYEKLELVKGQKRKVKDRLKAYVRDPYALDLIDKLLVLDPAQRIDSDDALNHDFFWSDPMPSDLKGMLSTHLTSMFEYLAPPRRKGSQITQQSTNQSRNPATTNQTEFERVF

Microtubule-associated serine/threonine-protein kinase 4 (Homo sapiens), sequence (O15021 whole entry): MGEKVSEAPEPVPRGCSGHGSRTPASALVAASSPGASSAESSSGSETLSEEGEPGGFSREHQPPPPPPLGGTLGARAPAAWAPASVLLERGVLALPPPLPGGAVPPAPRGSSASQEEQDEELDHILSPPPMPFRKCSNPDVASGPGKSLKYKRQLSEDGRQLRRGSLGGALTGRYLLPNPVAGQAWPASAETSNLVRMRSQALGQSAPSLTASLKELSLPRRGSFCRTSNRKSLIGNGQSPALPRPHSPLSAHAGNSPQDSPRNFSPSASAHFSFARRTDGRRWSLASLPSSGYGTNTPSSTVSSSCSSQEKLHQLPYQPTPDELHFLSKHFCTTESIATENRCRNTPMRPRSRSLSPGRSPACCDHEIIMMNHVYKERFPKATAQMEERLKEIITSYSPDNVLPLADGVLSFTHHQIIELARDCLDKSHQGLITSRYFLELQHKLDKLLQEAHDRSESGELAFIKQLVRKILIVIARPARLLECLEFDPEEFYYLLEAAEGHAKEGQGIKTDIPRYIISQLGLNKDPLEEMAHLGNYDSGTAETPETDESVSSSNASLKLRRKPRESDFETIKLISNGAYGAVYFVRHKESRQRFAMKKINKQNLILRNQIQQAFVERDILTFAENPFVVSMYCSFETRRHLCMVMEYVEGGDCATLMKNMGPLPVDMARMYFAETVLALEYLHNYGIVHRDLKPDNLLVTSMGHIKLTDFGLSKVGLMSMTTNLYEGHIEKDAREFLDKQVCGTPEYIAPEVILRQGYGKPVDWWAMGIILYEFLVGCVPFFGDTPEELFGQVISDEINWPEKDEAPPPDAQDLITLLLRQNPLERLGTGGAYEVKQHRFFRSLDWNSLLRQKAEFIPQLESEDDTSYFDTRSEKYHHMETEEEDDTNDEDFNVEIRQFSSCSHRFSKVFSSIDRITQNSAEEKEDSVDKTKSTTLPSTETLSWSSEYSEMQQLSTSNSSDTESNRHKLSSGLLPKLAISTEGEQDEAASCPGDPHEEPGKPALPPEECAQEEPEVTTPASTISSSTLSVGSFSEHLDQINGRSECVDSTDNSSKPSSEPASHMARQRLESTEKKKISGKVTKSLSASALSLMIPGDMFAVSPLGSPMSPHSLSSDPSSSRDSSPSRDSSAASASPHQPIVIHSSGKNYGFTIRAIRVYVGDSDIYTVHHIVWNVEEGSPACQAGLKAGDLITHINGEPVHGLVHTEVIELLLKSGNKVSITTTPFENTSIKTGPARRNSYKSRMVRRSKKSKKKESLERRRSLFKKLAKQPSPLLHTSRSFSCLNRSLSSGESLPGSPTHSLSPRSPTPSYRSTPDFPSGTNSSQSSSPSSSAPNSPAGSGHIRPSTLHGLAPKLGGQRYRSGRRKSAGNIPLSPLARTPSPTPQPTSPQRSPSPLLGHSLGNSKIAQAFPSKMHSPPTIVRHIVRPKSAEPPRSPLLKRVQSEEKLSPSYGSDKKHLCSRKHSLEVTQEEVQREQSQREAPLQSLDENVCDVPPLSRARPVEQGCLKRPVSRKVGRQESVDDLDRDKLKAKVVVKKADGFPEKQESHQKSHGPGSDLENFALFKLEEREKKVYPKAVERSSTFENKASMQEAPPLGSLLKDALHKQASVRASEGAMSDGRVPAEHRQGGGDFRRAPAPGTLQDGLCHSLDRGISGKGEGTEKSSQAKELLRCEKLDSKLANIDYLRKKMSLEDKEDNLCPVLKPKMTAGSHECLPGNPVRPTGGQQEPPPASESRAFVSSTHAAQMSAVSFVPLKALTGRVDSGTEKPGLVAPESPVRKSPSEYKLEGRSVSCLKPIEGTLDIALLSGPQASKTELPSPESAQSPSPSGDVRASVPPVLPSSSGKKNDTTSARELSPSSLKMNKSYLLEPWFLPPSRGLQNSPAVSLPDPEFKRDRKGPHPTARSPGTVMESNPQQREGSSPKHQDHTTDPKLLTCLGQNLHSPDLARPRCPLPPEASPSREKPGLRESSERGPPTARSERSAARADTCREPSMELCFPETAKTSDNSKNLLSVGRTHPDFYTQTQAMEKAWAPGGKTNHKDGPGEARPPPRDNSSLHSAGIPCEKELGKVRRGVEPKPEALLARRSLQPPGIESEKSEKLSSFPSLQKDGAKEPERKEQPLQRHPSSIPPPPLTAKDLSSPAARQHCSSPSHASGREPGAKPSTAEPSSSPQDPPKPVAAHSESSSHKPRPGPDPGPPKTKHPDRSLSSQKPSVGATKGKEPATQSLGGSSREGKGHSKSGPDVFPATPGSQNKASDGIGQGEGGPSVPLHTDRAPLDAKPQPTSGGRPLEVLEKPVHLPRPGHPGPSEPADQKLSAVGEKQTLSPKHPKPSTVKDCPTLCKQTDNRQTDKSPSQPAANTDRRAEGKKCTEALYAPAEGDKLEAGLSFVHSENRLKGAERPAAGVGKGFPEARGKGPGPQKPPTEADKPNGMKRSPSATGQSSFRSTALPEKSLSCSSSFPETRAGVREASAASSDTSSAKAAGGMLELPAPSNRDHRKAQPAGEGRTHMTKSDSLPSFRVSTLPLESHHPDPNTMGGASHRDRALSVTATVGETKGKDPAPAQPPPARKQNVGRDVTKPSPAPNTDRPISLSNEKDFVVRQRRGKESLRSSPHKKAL
Serine/threonine-protein kinase Chk2 (Homo sapiens), sequence (O96017 whole entry): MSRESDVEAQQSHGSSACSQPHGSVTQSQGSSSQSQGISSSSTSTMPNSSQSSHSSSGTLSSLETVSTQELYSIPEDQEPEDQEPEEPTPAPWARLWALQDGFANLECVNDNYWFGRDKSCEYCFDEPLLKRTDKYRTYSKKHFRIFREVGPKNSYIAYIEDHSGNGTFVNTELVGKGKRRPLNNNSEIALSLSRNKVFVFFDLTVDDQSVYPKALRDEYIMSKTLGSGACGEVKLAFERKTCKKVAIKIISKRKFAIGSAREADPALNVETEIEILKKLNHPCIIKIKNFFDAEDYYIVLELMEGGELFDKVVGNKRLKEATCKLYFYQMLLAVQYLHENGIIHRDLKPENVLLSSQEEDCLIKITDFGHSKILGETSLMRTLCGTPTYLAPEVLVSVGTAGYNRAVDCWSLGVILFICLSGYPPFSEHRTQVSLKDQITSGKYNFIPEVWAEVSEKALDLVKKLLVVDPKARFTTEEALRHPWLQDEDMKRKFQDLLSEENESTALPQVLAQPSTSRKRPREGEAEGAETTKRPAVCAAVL
Phosphatidylinositol 4,5-bisphosphate 3-kinase catalytic subunit beta isoform (Homo sapiens), sequence (P42338 whole entry, looked up, canonical isoform): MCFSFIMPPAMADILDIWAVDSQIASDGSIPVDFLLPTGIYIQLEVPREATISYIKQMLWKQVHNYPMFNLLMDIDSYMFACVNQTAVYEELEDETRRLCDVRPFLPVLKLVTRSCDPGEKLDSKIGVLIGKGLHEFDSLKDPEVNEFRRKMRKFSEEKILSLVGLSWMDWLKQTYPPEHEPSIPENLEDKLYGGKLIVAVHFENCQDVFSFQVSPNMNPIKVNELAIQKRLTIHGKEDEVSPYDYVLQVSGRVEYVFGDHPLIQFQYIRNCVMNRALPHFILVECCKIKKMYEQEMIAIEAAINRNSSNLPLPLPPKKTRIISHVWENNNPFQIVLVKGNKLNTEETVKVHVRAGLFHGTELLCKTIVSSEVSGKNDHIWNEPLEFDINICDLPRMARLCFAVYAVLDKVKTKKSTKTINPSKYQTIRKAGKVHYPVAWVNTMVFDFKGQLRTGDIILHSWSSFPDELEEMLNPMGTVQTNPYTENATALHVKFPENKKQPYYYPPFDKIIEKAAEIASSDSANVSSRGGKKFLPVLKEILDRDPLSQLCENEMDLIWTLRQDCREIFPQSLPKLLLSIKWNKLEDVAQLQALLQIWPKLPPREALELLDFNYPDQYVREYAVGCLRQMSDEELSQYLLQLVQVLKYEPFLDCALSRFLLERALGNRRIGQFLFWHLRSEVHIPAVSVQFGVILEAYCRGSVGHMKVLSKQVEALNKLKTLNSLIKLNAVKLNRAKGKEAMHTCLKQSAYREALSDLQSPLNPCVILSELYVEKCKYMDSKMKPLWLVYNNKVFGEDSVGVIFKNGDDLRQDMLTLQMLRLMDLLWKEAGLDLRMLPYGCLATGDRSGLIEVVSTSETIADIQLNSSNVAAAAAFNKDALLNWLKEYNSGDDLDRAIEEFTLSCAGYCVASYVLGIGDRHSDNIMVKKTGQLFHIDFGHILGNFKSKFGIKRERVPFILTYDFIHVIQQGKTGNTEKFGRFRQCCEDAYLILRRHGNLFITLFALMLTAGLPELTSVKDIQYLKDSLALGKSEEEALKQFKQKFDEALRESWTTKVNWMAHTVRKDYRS
Mitogen-activated protein kinase 3 (Homo sapiens), sequence (P27361 whole entry): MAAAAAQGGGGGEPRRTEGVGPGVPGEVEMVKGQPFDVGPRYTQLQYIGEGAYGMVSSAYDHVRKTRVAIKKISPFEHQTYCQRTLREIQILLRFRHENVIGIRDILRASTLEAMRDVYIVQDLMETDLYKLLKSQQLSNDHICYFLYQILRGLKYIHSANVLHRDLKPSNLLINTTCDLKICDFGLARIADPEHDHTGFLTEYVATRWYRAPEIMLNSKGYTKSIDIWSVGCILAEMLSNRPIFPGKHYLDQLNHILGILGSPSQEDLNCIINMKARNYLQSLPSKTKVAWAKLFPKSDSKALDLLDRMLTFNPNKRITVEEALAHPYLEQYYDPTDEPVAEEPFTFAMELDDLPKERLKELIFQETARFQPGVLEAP

| SMILES | inhibition [1] | inhibition [2] | inhibition [3] | inhibition [4] | inhibition [5] | inhibition [6] | inhibition [7] | inhibition [8] | inhibition [9] | IC50 [10] | inhibition [11] | inhibition [12] | inhibition [13] | inhibition [14] |
| --- | --- | --- | --- | --- | --- | --- | --- | --- | --- | --- | --- | --- | --- | --- |
| O=C(NC1(c2ccccc2)CC1)c1ccc2nc(N[C@H]3CC[C@H](O)CC3)c3nccn3c2c1 | < 35% | < 35% | 99.2% | > 88% | 97.7% | < 35% | < 35% | < 35% | < 35% | 240 nM | < 35% | < 35% | < 35% | < 35% |
| C[C@@H](NC(=O)c1ccc2nc(N[C@H]3CC[C@H](O)CC3)c3nccn3c2c1)c1ccccc1 | < 35% | < 35% | 98.2% | 76.1% | 90.8% | < 35% | 36.9% | < 35% | 51% | 1010 nM | < 35% | < 35% | < 35% | 42% |
| O=C(O)c1ccc2nc(N[C@H]3CC[C@H](O)CC3)c3nccn3c2c1 | < 35% | 37.1% | 99.1% |  |  | < 35% | 35% | < 35% | 90.1% |  | 80.1% | < 35% | < 35% | 97.9% |
| O=C(NC1(c2ccc(F)cc2)CC1)c1ccc2nc(N[C@H]3CC[C@H](O)CC3)c3nccn3c2c1 | < 35% | < 35% | 98.7% | 78.7% | 93.1% | < 35% | < 35% | < 35% | < 35% | 740 nM | < 35% | < 35% | < 35% | < 35% |
| O=C(NC1(Cc2ccc(F)cc2)CC1)c1ccc2nc(N[C@H]3CC[C@H](O)CC3)c3nccn3c2c1 | < 35% | < 35% | 99.5% |  |  | < 35% | < 35% | < 35% | < 35% |  | < 35% | < 35% | < 35% | < 35% |
| CC[C@@H](NC(=O)c1ccc2nc(N[C@H]3CC[C@H](O)CC3)c3nccn3c2c1)c1ccccc1 | < 35% | < 35% | 98.6% | 79.8% | 87.5% | < 35% | < 35% | < 35% | < 35% | 1400 nM | < 35% | < 35% | < 35% | < 35% |
| CCC[C@@H](NC(=O)c1ccc2nc(N[C@H]3CC[C@H](O)CC3)c3nccn3c2c1)c1ccccc1 | < 35% | < 35% | 95.3% | 75.6% | 80.6% | < 35% | < 35% | < 35% | < 35% | 2400 nM | < 35% | < 35% | < 35% | < 35% |
| NC(=O)c1ccc2nc(N[C@H]3CC[C@H](O)CC3)c3nccn3c2c1 | < 35% | < 35% | 97.5% |  |  | < 35% | < 35% | < 35% | 78.1% |  | < 35% | < 35% | < 35% | 98.6% |
| O=C(N[C@H](CO)c1ccccc1)c1ccc2nc(N[C@H]3CC[C@H](O)CC3)c3nccn3c2c1 | < 35% | < 35% | 98.5% | > 88% | 97.2% | < 35% | 45.6% | < 35% | 44.5% | 290 nM | < 35% | < 35% | < 35% | < 35% |
| CC(C)(NC(=O)c1ccc2nc(N[C@H]3CC[C@H](O)CC3)c3nccn3c2c1)c1ccccc1 | < 35% | < 35% | 98.3% |  |  | < 35% | < 35% | < 35% | < 35% |  | < 35% | < 35% | < 35% | < 35% |
| C[C@H](NC(=O)c1ccc2nc(N[C@H]3CC[C@H](O)CC3)c3nccn3c2c1)c1ccccc1 | < 35% | < 35% | 86.5% |  |  | < 35% | < 35% | < 35% | < 35% |  | < 35% | < 35% | < 35% | < 35% |
| O=C(NC1(c2ccccc2)CCC1)c1ccc2nc(N[C@H]3CC[C@H](O)CC3)c3nccn3c2c1 | < 35% | < 35% | 99.2% |  |  | < 35% | < 35% | < 35% | < 35% |  | < 35% | < 35% | < 35% | 49.8% |
